In publication PMC3894222 (PLoS Pathogens, 2014):

Experiments:
[1] = target: T1, Sm5HTR (Schistosoma mansoni, UniProt G4V5G4); test: cAMP fluorescent competitive immunoassay, transfected HEK […] cells; assay type: cell-based; conditions: 20 uM forskolin, IBMX pretreatment, 37 °C, 10 min
T1 construct: gene 5HT-1; full length, 463 residues, 52 kDa; pCI-neo; transiently transfected HEK 293 cells
T1 sequence (G4V5G4 1-463): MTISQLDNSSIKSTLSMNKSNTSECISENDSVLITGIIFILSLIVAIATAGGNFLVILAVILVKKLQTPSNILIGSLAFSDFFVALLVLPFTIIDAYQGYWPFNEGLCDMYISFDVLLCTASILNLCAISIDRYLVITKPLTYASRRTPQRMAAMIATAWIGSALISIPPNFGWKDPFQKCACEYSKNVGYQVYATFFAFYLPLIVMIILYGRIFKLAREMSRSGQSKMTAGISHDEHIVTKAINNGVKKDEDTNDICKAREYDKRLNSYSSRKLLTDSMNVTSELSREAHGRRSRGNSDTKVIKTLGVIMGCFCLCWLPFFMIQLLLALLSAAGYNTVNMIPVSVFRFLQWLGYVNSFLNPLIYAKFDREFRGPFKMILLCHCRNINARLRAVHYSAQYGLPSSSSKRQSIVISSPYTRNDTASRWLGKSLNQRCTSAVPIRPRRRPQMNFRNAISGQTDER

[2] = target: T1, Sm5HTR; test: as above; assay type: cell-based
[3] = antagonist at 100 uM against 100 uM serotonin

SMILES | cAMP fluorescent competitive immunoassay, transfected HEK 293 cells ([1]; agonist at 100 uM) | cAMP fluorescent competitive immunoassay, transfected HEK 293 cells [1, 3] | further results
O=C1CC2(CCCC2)CC(=O)N1CCCCN1CCN(c2ncccn2)CC1 [BUS, buspirone] | classical (i.e. mammalian) serotonergic agonists such as tryptamine, DPAT and buspiperone | – | –
CN1CCC(=C2c3ccccc3C=Cc3ccccc32)CC1 [CPH, cyproheptadine] | – | inhibited by co-application of common serotonergic antagonists such as cyproheptadine or mianserin | –
CCCN(CCC)C1CCc2cccc(O)c2C1 (stereo not drawn) [DPAT, 8-Hydroxy-DPAT] | classical (i.e. mammalian) serotonergic agonists such as tryptamine, DPAT and buspiperone | – | –
CN1CCN2c3ccccc3Cc3ccccc3C2C1 (stereo not drawn) [MIAN, mianserin] | – | inhibited by co-application of common serotonergic antagonists such as cyproheptadine or mianserin | –
NCCc1c[nH]c2ccccc12 [Trp, tryptamine] | classical (i.e. mammalian) serotonergic agonists such as tryptamine, DPAT and buspiperone | – | –
COc1ccc2[nH]cc(CCN)c2c1 [methyl-5HT, o-methyl-serotonin] | – | – | EC50 [2]: 72.2 nM
